According to ChEMBL document CHEMBL1151556, “Design and synthesis of new hypocholesterolemic organosilanes with antioxidant properties” (Bioorg Med Chem Lett, 1996):

Experiments:
Homo sapiens [1] = organism: Homo sapiens; assay: Compound was evaluated for the inhibition of human LDL oxidation mediated by copper(II).; type: functional
Rattus norvegicus = assay: Compound was evaluated in vivo for inhibition of cholesterol synthesis in rats upon oral administration.; type: functional
HepG2 = assay: In vitro inhibition of cholesterol synthesis in HepG2 cells.; type: functional, cell-based; conditions: Homo sapiens
HUVEC = assay: (§1) Compound was evaluated for the inhibition of HUVEC-induced LDL oxidation; type: functional, cell-based; conditions: Homo sapiens
[2] = target: Squalene monooxygenase (Sus scrofa); assay: Compound was evaluated for the inhibition of pig liver microsomal squalene epoxidase.
Homo sapiens [3] = organism: Homo sapiens; assay: as §1; type: functional, organism-based

## CCN(C/C=C/C#CC(C)(C)C)Cc1cccc(OC[Si](C)(C)c2ccccc2C)c1
Homo sapiens [1]
  IC50: > 50 µM
Rattus norvegicus
  ED50: 3.2 mg/kg
HepG2
  IC50: 0.12 µM
HUVEC
  IC50: 50 µM
[2]
  IC50: 0.03 µM

## CC(C)(CNc1ccccc1)c1ccccc1
Homo sapiens [1]; Homo sapiens
  IC50: 100 µM

## CCN(C[Si](C)(C)c1ccccc1)c1ccccc1
Homo sapiens [1]; Homo sapiens
  IC50: 15 µM

## COc1ccc(NC[Si](C)(C)c2ccccc2)cc1
Homo sapiens [1]; Homo sapiens
  IC50: 3 µM

## CCN(C[Si](C)(C)c1ccccc1)c1ccc(C(F)(F)F)cc1
Homo sapiens [1]; Homo sapiens
  IC50: 100 µM

## CCN(C[Si](C)(C)c1ccc(C(F)(F)F)cc1)c1ccccc1
Homo sapiens [1]; Homo sapiens
  IC50: 20 µM

## C[Si](C)(CNc1ccccc1)c1ccccc1
Homo sapiens [1]; Homo sapiens
  IC50: 7.8 µM

## CCN(C/C=C/C#CC(C)(C)C)Cc1cccc(NC[Si](C)(C)c2ccccc2C)c1
Homo sapiens [1]
  IC50: 20 µM
Rattus norvegicus
  ED50: 10 mg/kg
HepG2
  IC50: 0.2 µM
HUVEC
  IC50: 7 µM

## CC(C)(Sc1cc(C(C)(C)C)c(O)c(C(C)(C)C)c1)Sc1cc(C(C)(C)C)c(O)c(C(C)(C)C)c1 [PROBUCOL]
Homo sapiens [1]; Homo sapiens
  IC50: 5.3 µM

## VITAMIN E
Homo sapiens [1]
  IC50: 10 µM
Homo sapiens [3]
  IC50: 13.6 µM
